Data on four substances can be found in publication PMC3082566, “PTB Domain-Directed Substrate Targeting in a Tyrosine Kinase from the Unicellular Choanoflagellate Monosiga brevicollis” (PLoS ONE, 2011).

One experiment concerns SYF cells. The experiment in a line: Anti-phosphotyrosine Western blotting of SYF cell lysates. It is filed as cell-based, mammalian. Conditions: 0.1 or 1.0 mM sodium orthovanadate, 20 minutes, 37°C; Fig. S4B.
Experiment [1] has as its system FLAG-tagged wild-type HMTK1. The experiment can be described thus: Pulldown of FLAG-tagged wild-type HMTK1 from SYF cell lysates with immobilized peptides. It is filed as binding, Monosiga brevicollis. Conditions: immobilized peptide; anti-FLAG Western; Fig. 3C. The protocol: (§1) For expression in insect cells, HMTK1 DNA (encoding residues 341–761) was cloned into the EcoRI site of pFastbac-Hta (Invitrogen). FLAG-tagged HMTK1 was expressed in mammalian cells by subcloning into the BglII and BamHI sites of p3XFLAG-CMV (Sigma). The ΔPTB version of this construct was prepared by PCR amplification and subsequent recloning into the BamHI and EcoRI sites of p3XFLAG-CMV. Site-directed mutagenesis of FLAG-HMTK1 was carried out using the QuikChange kit (Stratagene). To express the isolated third PTB domain (residues 341–474) in bacterial cells, this PCR fragment was cloned into the EcoRI site of plasmid pGEX-4T-1 (GE Healthcare). All constructs were confirmed by DNA sequencing.
(§2) The PTB ligand-containing peptide, Phe-containing PTB control, and pYEEI peptide (EPQpYEEIG) were linked to Affi-Gel 15 resin (Bio-Rad) following the manufacturer's protocols. Purified HMTK1 or the isolated PTB domain were incubated for 1 hour at 4°C with the immobilized peptides. […]
(§3) Figure 3 Binding reactions with pYEEI-containing peptide. […] Bound proteins were eluted with SDS-PAGE sample buffer and analyzed by gel electrophoresis with Coomassie blue staining. […] After washing, bound proteins were eluted with SDS-PAGE sample buffer and analyzed by Western blotting with anti-GST antibody. […] After washing, bound proteins were analyzed by anti-FLAG Western blotting. […]

In the next experiment the test system is c-Src. The experiment can be described thus: Binding of purified Src to immobilized pYEEI peptide. Conditions: positive control; 20 µg protein, 30 µl immobilized peptide, 1 hour at 4°C; Coomassie; Fig. 3A. How it is done: (§4) The PTB ligand-containing peptide, Phe-containing PTB control, and pYEEI peptide (EPQpYEEIG) were linked to Affi-Gel 15 resin (Bio-Rad) following the manufacturer's protocols. Purified HMTK1 or the isolated PTB domain were incubated for 1 hour at 4°C with the immobilized peptides. After binding, the beads were washed 4 times with 1 ml of binding buffer (50 mM Tris-HCl pH 7.5, 5 mM EDTA, 100 mM NaCl, 0.1% Triton X-100, 1 mM DTT, 0.5 mM Na3VO4). Bound proteins were eluted with SDS-PAGE loading buffer, separated by 10% SDS-PAGE, and visualized either by Coomassie blue staining or by Western blotting.
(§5) Figure 3 Binding reactions with pYEEI-containing peptide. (A). Purified HMTK1 or c-Src (20 µg) were mixed with 30 µl of immobilized pYEEI peptide (pY) or control resin (C) in total volumes of 175 µl for 1 hour at 4°C. After binding, the resins were washed 4 times with 200 µl of binding buffer. Bound proteins were eluted with SDS-PAGE sample buffer and analyzed by gel electrophoresis with Coomassie blue staining. (B). The isolated HMTK1 PTB domain (8 µg) was incubated with 50 µl of immobilized pYEEI peptide (pY) or control resin (C) in total volumes of 400 µl for 1 hour at 4°C. After washing, bound proteins were eluted with SDS-PAGE sample buffer and analyzed by Western blotting with anti-GST antibody. (C). […] After washing, bound proteins were analyzed by anti-FLAG Western blotting. […]

A further experiment concerns FLAG-tagged ΔPTB HMTK1. The experiment can be described thus: Pulldown of FLAG-tagged ΔPTB HMTK1 from SYF cell lysates with immobilized pYEEI. As to conditions: immobilized peptide; anti-FLAG Western; Fig. 3C. The experiment is classed as binding, Monosiga brevicollis. How it is done:
as §1, §2, §3

Experiment [2] relates to isolated HMTK1 PTB domain. The experiment can be described thus: Pulldown of isolated HMTK1 PTB domain with immobilized pYEEI peptide. The experiment is classed as binding, Monosiga brevicollis. As to conditions: 8 µg PTB domain, 50 µl immobilized peptide, 1 hour at 4°C; anti-GST Western; Fig. 3B. The protocol: HMTK1 was expressed in Spodoptera frugiperda (Sf9) insect cells using the Bac-to-Bac system (Invitrogen). Sf9 cells (800 ml) were infected with HMTK1 baculovirus and harvested after three days. Cells were lysed in a French pressure cell, and His-tagged HMTK1 was purified using nickel-nitrilotriacetic acid resin (Qiagen), as described previously. Peak fractions were pooled and concentrated in an Amicon Ultrafiltration device (molecular weight cutoff: 30,000 daltons). The purified protein was stored in 40% glycerol at −20°C. The isolated PTB domain of HMTK1 was produced as a fusion with glutathione S-transferase (GST). E. coli cells (1 liter) expressing the GST fusion protein were lysed in a French pressure cell, and the GST-PTB protein was purified by chromatography on a glutathione-agarose column (Molecular Probes).
The PTB ligand-containing peptide, Phe-containing PTB control, and pYEEI peptide (EPQpYEEIG) were linked to Affi-Gel 15 resin (Bio-Rad) following the manufacturer's protocols. […]
as §3

Experiment [3] relates to HMTK1. The experiment can be described thus: Binding of purified HMTK1 to immobilized pYEEI peptide. Set-up: species or system Monosiga brevicollis. As to conditions: 20 µg protein, 30 µl immobilized peptide, 1 hour at 4°C; Coomassie; Fig. 3A. The protocol: as §4, §5
Experiment [4] deals with HMTK1. The experiment in a line: Steady-state kinetics, continuous spectrophotometric assay. Conditions: HMTK1 0.3–0.5 µM, peptide 0–700 µM, 100 mM Tris pH 7.4, 10 mM MgCl2, 2 mM ATP, 30°C. The experiment is classed as biochemical, Monosiga brevicollis. How it is done:
Kinase assays were performed by two methods. Initial activity measurements were performed by the phosphocellulose paper binding assay. Reaction mixtures contained 20 mM Tris-HCl (pH 7.4), 10 mM MgCl2, 0.2 mM ATP, [γ-^32P]-ATP (30–50 cpm/pmol), and varying amounts of HMTK1 and peptide substrates. All peptide substrates were purified by high pressure liquid chromatography and characterized by mass spectrometry prior to use. The following substrates were used: c-Src peptide, […]; MbSTAT peptide, […]; RTKB2 peptide 1, […]; RTKB2 peptide 2, […]; SH2 binding substrates (varying linker lengths), […]pYEEIG, […]pYEEIG, and […]pYEEIG; SH2 control substrate, […]. Initial rate kinetic measurements on the PTB ligand-containing substrate ([…]pYATLG) and on the Phe-containing PTB control ([…]) were carried out using a continuous spectrophotometric assay. Reactions were performed at 30°C in a final volume of 50 µl. The reactions contained 100 mM Tris pH 7.4, 10 mM MgCl2, 2 mM ATP, 1.5 mM phosphoenolpyruvate, 90 units/ml of pyruvate kinase, 109 units/ml of lactate dehydrogenase, and 1.2 mg/ml of NADH. For determination of Km values, the enzyme concentrations were 0.3–0.5 µM and the peptide concentrations ranged from 0–700 µM. Kinetic constants were determined by nonlinear fitting to the [substrate] vs. velocity curves using GraphPad Prism 4.

Experiment [5] has as its system HMTK1. The experiment in a line: Binding of purified HMTK1 to immobilized PTB ligand peptides. On the set-up: species or system Monosiga brevicollis. As to conditions: 6.6 µg HMTK1; peptide on Affi-Gel resin; 1 hour at 4°C; anti-His6 Western; Fig. 5A. How it is done: as §4
Figure 5 Substrate targeting by PTB ligand. (A) Purified HMTK1 (6.6 µg) was incubated with PTB ligand-containing substrate ([…]pYATLG), PTB control substrate ([…]), pYEEI peptide, or control resin in final volumes of 60 µl. After washing, bound proteins were eluted with SDS-PAGE sample buffer and analyzed by Western blotting with anti-His6-tag antibody. (B) The kinase activity of HMTK1 (300 nM) toward the PTB ligand-containing substrate or PTB control substrate (shown schematically) was determined using the phosphocellulose paper assay. The reaction contained 20 mM Tris-HCl (pH 7.4), 10 mM MgCl2, 0.2 mM ATP, 30 µM peptide, and [γ-^32P]-ATP. […] Incorporation of ^32P into the peptides was determined by scintillation counting.

Experiment [6] has as its system HMTK1. The experiment in a line: Substrate targeting: phosphorylation of PTB ligand-containing substrate and control by HMTK1. Conditions: 30 µM peptide, 300 nM HMTK1, 20 mM Tris-HCl pH 7.4, 10 mM MgCl2, 0.2 mM ATP, Fig. 5B. The experiment is classed as biochemical, Monosiga brevicollis. The protocol:
Kinase assays were performed by two methods. Initial activity measurements were performed by the phosphocellulose paper binding assay. Reaction mixtures contained 20 mM Tris-HCl (pH 7.4), 10 mM MgCl2, 0.2 mM ATP, [γ-^32P]-ATP (30–50 cpm/pmol), and varying amounts of HMTK1 and peptide substrates. All peptide substrates were purified by high pressure liquid chromatography and characterized by mass spectrometry prior to use. The following substrates were used: c-Src peptide, […]; MbSTAT peptide, […]; RTKB2 peptide 1, […]; RTKB2 peptide 2, […]; SH2 binding substrates (varying linker lengths), […]pYEEIG, […]pYEEIG, and […]pYEEIG; SH2 control substrate, […]. […] Kinetic constants were determined by nonlinear fitting to the [substrate] vs. velocity curves using GraphPad Prism 4.
Figure 5 Substrate targeting by PTB ligand. […] After washing, bound proteins were eluted with SDS-PAGE sample buffer and analyzed by Western blotting with anti-His6-tag antibody. (B) The kinase activity of HMTK1 (300 nM) toward the PTB ligand-containing substrate or PTB control substrate (shown schematically) was determined using the phosphocellulose paper assay. […] Incorporation of ^32P into the peptides was determined by scintillation counting.

The next experiment deals with Hck. As to conditions: Src family kinase Hck with the same peptide; ref [24]; cited from earlier work. From the text: We selected a pair of peptides for further study. […] We synthesized an individual peptide in which the sequence NFTNPVpYATG was connected to a tyrosine kinase substrate sequence.
In another experiment the test system is HMTK1 PTB domain. The experiment in a line: Peptide array (PepSpots) probed with biotinylated HMTK1 PTB domain. It is filed as binding, Monosiga brevicollis. As to conditions: 10 µg/ml PTB, 5% BSA, 20 mM Hepes pH 7.3, 30 min at room temperature; streptavidin-HRP chemiluminescence; Fig. 4A. The text has this:
The PTB domain of HMTK1 was cloned as an EcoR1 fragment into a modified pGEX (GE Healthcare Life Sciences) bicistronic vector pGEX-4T-BiotinN to express the gene of interest and the biotin ligase (BirA) in the same cell ([19]; Chan et al., in press). […] The resulting pGEX-BiotinN-PTB construct was transformed into E. coli BL21(DE3) cells for expression. GST-biotin-PTB protein was purified using glutathione-agarose and desalted using a PD-10 (GE Healthcare) gel filtration column.
N-terminally acetylated 11-residue peptides were synthesized using standard chemistry in situ (PepSpots) on cellulose based matrix (Jerini Biotools). To ensure protein accessibility, each peptide contained a 4-residue spacer consisting of a glycine and 3 β-alanines. All peptides were immobilized via their C-termini. […] Prior to usage, peptide array membranes were washed in binding buffer (20 mM Hepes pH 7.3, 137 mM NaCl, 5 mM KCl, 0.05% Tween-20) and blocked with 5% filtered bovine serum albumin in the same buffer. […] After washing in binding buffer (3×10 min), bound PTB was detected using enhanced chemiluminescence and standard X-ray film.
Figure 4 Peptide array experiment. […] Bound PTB domain was detected using streptavidin-HRP and enhanced chemiluminescence. […]

“Also recorded” adds a separate entry of the source.

Description for SYF cells: SYF cells were cultured in Dulbecco's modified Eagle's medium (Mediatech, Inc.) supplemented with 10% fetal bovine serum (Sigma) and 1000 UI/ml penicillin, 1000 UI/ml streptomycin and 25 ng/ml amphotericin B (Mediatech, Inc.). SYF cells (2.25×10^6) were plated in 15-cm diameter dishes and transfected after 24 hours using 5–15 µg of DNA and 2 µl TransIT per µg DNA. After 48 hours, the cells were harvested, washed twice with PBS and lysed using radioimmune precipitation assay (RIPA) buffer (50 mM Tris-HCl pH 7.4, 150 mM NaCl, 5 mM EDTA, 1% sodium deoxycholate, 1% Nonidet P-40) supplemented with the protease inhibitors leupeptin (10 µg/ml), aprotinin (10 µg/ml), PMSF (200 µM) and the phosphatase inhibitors Na3VO4 (0.2 mM) and NaF (10 mM). Lysates (50 µg) were separated by 10% SDS-PAGE, transferred to PVDF membranes and probed with the appropriate antibodies. For immunoprecipitation, cell lysates (100 µg) were incubated overnight at 4°C with 40 µl of EZview red anti-Flag M2 affinity gel pre-equilibrated with RIPA buffer in a total volume of 1 ml. The immunocomplexes were washed 4 times, eluted from the beads by adding Laemmli buffer, separated by SDS-PAGE, transferred to PVDF membranes and probed with the appropriate antibodies.
Whole cell lysates were analyzed by SDS-PAGE and Western blotting with anti-pTyr, anti-FLAG, or anti-tubulin antibodies, as indicated. […]

For the substance sodium orthovanadate, in the experiment on SYF cells, the “overall phosphorylation in SYF cells” value is given as “enhanced overall phosphorylation”.
On to “EPQpYEEIG [Src SH2 ligand peptide linked to Affi-Gel 15 resin]”, for which the “binding to wild-type HMTK1 (SYF lysate)” value in experiment [1] was “bound”. For the same substance, in the experiment with c-Src, the “binding to purified Src” value is reported as “bound”. For the same substance, the “binding to ΔPTB HMTK1 (SYF lysate)” value in the experiment on FLAG-tagged ΔPTB HMTK1 is reported as “did not”. Further, the “binding to isolated HMTK1 PTB domain” value in [2] is “pYEEI-binding activity was localized to the PTB domain; also recorded: bound”. Further, the “binding to purified HMTK1” value with HMTK1 [3] is “bound”.
In the case of “KKAEEEIYGEFEANFTNPVpYATLG [pTyr peptide]”, in the experiment with HMTK1 [4], the Vmax came to 4.9 µmol/min/mg enzyme. Besides, the Km (commonly the concentration of substrate that gives half-maximal velocity) in the experiment on HMTK1 [4] (nonlinear fitting) turned out to be 33 µM. Besides, the “binding to purified HMTK1” value with HMTK1 [5] was “bound”. The “phosphorylation by HMTK1 compared to Phe control” value with HMTK1 [6] (listed as pTyr-containing peptide) is recorded as “preferentially phosphorylated”; in the experiment with HMTK1 [6] (listed as synthetic peptide containing this sequence (with pTyr)), “phosphorylated more efficiently”. The “Vmax (Hck)” value with Hck was 3.0 µmol/min/mg enzyme.
In the case of TNFTNPVYATLG, the “binding of biotinylated PTB domain to array peptides, phosphorylated vs unphosphorylated” value in the experiment on HMTK1 PTB domain is “bound much more strongly in the phosphorylated state”.
